One series relates to Lp(a). To be noted: man, reported in the literature; cited from earlier work.
For series [1] the following is noted: high doses necessary for efficacy (4 g/day); cited from earlier work.

The melting point is the temperature, or range, at which the solid turns liquid.

Structures are written as SMILES.

`CCOP(=O)(CNCc1cccnc1-c1cc(OC)c(O)c(OC)c1)OCC` registered a melting point of 99 to 101 °C.

Compound `CCOP(=O)(CNCc1ccnc(-c2cc(OC)c(O)c(OC)c2)c1)OCC` yielded a melting point of 124 to 126 °C.

Consider `CC[C@H](C)C(=O)O[C@H]1C[C@@H](C)C=C2C=C[C@H](C)[C@H](CC[C@@H]3C[C@@H](O)CC(=O)O3)[C@H]21` [lovastatin], for which, in the series with Lp(a), the “effect on Lp(a) levels” value is “do not affect Lp(a) levels”.

As to `O=C(O)c1cccnc1` [nicotinic acid], in series [1], the serious side-effects entry is “flushing, vasodilation and hepatotoxicity”. Further, the “effect on Lp(a) levels” value in the series on Lp(a) is given as “lower Lp(a)”.

Turning to `CC(C)(Sc1cc(C(C)(C)C)c(O)c(C(C)(C)C)c1)Sc1cc(C(C)(C)C)c(O)c(C(C)(C)C)c1` [probucol], the “effect on Lp(a) levels” value in the series with Lp(a) was “equally ineffective”.

The record behind these values is patent US6660724B1, “Compounds and pharmaceutical compositions containing them” (Ilex Products, Inc., priority 1995, dated 2003).
